Measured values: patent publication US20250066286A1, “COMPOSITIONS OF (Z)-ENDOXIFEN AND METHODS OF ENRICHMENT THEREOF” (Atossa Therapeutics, Inc., priority 2022, published 2025)

Experiment: (Z)-Endoxifen recovery by solvent evaporation (XRPD)
Assay type: physicochemical
Experimental: For the single-solvent evaporations, 10 mg (Z)-endoxifen was dissolved in 1 ml of various solvents in which (Z)-endoxifen has >1000 mg/ml solubility (“very soluble”), 100-1000 mg/ml solubility (“freely soluble”), 33-100 mg/ml solubility (“soluble”), and 10-33 mg/ml solubility (“sparingly soluble”). The solutions were stirred for approximately 60 minutes, then left to evaporate. Following (Z)-endoxifen dissolution to a concentration of 10 mg/ml, all solvents generated clear solutions in which the (Z)-endoxifen completely dissolved. The solutions were evaporated at either room temperature (17-25° C.) or elevated temperature (40-60° C.). All evaporations were performed at 1 atmosphere pressure. The solids obtained from the evaporations were analyzed by XRPD.
For the multi-solvent evaporations, 40 mg (Z)-endoxifen was dissolved in either ethanol/water or THF/acetone mixtures. For the water/ethanol evaporations, 20 ml of 70/30 ethanol/water (v/v) mixtures (achieving concentrations of 2 mg/ml (Z)-endoxifen). The white suspensions were incubated for 3 days at 50° C., yielding clear solutions which were then left to evaporate at elevated temperatures. These analyses were repeated over 4 replicates. For the THF/acetone evaporations, 60 mg (Z)-endoxifen were dissolved in 1.5 ml of a multi-solvent system containing tetrahydrofuran (THF) and acetone in a 40/60 (v/v) mixture. The resultant clear solution was filtered and left to evaporate at room temperature.

## CC/C(=C(\c1ccc(O)cc1)c1ccc(OCCNC)cc1)c1ccccc1 [(Z)-endoxifen, (Z)-4-(1-(4-(2-(methylamino)ethoxy)phenyl)-2-phenylbut-1-enyl)phenol]
EVHT: butyl acetate, 10 mg/mL, evaporation at 60° C.
  Output Main phase [phase]: Form I
EVHT: dimethylformamide, 10 mg/mL, evaporation at 60° C.
  Output Main phase [phase]: amorphous
EVHT: ethanol/water 70/30 v/v, 2 mg/mL, evaporation at 60° C. (4 replicates)
  Output Main phase [phase]: amorphous
EVHT: methyl isobutyl ketone, 10 mg/mL, evaporation at 60° C.
  Output Main phase [phase]: amorphous
EVHT: toluene, 10 mg/mL, evaporation at 60° C.
  Output Main phase [phase]: amorphous
EVRT: 2-propanol, 10 mg/mL, evaporation at RT
  Output Main phase [phase]: Form IV
EVRT: acetone, 10 mg/mL, evaporation at RT
  Output Main phase [phase]: Form I
EVRT: acetonitrile, 10 mg/mL, evaporation at RT
  Output Main phase [phase]: Form I
EVRT: ethyl acetate, 10 mg/mL, evaporation at RT
  Output Main phase [phase]: Form I
EVRT: methanol, 10 mg/mL, evaporation at RT
  Output Main phase [phase]: Form I
EVRT: tetrahydrofuran/acetone 40/60 v/v, 40 mg/mL, evaporation at RT
  Output Main phase [phase]: Form I
